Measured values published in ChEMBL document CHEMBL2331190, “Synthesis of 1,4-bis(indolin-1-ylmethyl)benzene derivatives and their structure-activity relationships for the interaction of human carbonic anhydrase isoforms I and II” (Bioorg Med Chem, 2013).

What was measured:
[1] = molecular target: Carbonic anhydrase 2 (Homo sapiens, UniProt P00918); experiment: Inhibition of human carbonic anhydrase 2 using 4-nitrophenylacetate as substrate after 3 mins by spectrophotometric analysis
[2] = molecular target: Carbonic anhydrase 1 (Homo sapiens, UniProt P00915); experiment: Inhibition of human carbonic anhydrase 1 using 4-nitrophenylacetate as substrate after 3 mins by spectrophotometric analysis
Sequence of Carbonic anhydrase 1 (P00915 whole entry): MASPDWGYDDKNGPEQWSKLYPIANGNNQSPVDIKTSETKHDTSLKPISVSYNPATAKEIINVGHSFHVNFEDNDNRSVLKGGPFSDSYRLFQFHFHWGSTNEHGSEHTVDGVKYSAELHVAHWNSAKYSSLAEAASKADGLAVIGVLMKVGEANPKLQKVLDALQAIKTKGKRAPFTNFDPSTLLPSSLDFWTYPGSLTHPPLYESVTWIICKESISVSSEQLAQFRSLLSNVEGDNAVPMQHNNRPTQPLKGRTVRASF

| Structure (SMILES) | Ki [1] | Ki [2] |
| --- | --- | --- |
| c1ccc2c(c1)c1c(n2Cc2ccc(Cn3c4c(c5ccccc53)CCC4)cc2)CCC1 | 0.17 µM | 42.6 µM |
| c1ccc2c(c1)c1c(n2Cc2ccc(Cn3c4c(c5ccccc53)CCCC4)cc2)CCCC1 | 0.25 µM | 39.3 µM |
| c1ccc2c(c1)c1c(n2Cc2ccc(Cn3c4c(c5ccccc53)CCCCC4)cc2)CCCCC1 | 0.29 µM | 41.7 µM |
